Test results: ChEMBL document CHEMBL1201862, “PubChem BioAssay data set” (2004)
Calls of active or inactive are those of the source.

Columns and labels:
[1] = target: T1, Carboxy-terminal domain RNA polymerase II polypeptide A small phosphatase 1 (Homo sapiens, UniProt Q9GZU7); experiment: inhibitors of CTDSP1, concentration-response testing, biochemical assay, absorbance-based, actives from ultra-high-throughput screening (AID 540297); format: functional
T1 sequence (Q9GZU7 whole entry): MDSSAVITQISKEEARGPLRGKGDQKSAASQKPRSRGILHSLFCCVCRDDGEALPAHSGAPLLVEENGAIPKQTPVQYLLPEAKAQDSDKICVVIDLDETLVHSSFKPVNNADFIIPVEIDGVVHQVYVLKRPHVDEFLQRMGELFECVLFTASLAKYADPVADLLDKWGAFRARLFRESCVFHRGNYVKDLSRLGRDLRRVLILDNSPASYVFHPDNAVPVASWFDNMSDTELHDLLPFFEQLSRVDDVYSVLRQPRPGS

Genome polyprotein = Genome polyprotein (Hepatitis C virus, UniProt Q2Q167); experiment: HCV core protein dimerization inhibitors, dose response, biochemical, TR-FRET (AID 2159); design: species or system Hepacivirus hominis;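 further: blocks dimerization of HCV core protein measured by TR-FRET between tagged core106 pairs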
[2] = target: Eukaryotic translation initiation factor 4E (Mus musculus, UniProt P63073); experiment: eIF4E–eIF4G protein interaction inhibitors, dose response, biochemical, TR-FRET (AID 855); format: functional;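 further: potency for disrupting eIF4E binding to eIF4GI seen as loss of FRET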
SUMO-activating enzyme [3] = target: T2, SUMO-activating enzyme (Homo sapiens, UniProt Q9UBT2); experiment: inhibitors of in vitro SUMOylation cascade, primary screen, biochemical, HTRF, uHTS (AID 2006); format: protein-complex assay
SUMO-activating enzyme [4] = target: T2, SUMO-activating enzyme; experiment: SUMOylation inhibitor hit validation, confirmation, SUMOylation inhibitor project, biochemical, AlphaScreen (AID 2018); format: functional
[5] = target: Induced myeloid leukemia cell differentiation protein Mcl-1 (Homo sapiens, UniProt Q07820); format: functional
[6] = inhibitors of intracellular T. cruzi replication, confirmation, NIH3T3 host cells, beta-gal luminescence (AID 2044); format: functional, cell-based;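 further: intracellular parasites grown in NIH/3T3 mouse fibroblasts as host cells; luminescent beta-galactosidase reporter signal from transgenic T. cruzi replicating inside host cells; inhibitors lower the luminescence signal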
[7] = cytotoxicity toward NIH3T3 fibroblasts, dose response, counter-screen, cell-based, ATP luminescence, mouse fibroblasts (AID 2010); format: functional;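 further: cells exposed to compound for about 90 hours before reading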
[8] = target: T3, Serine/threonine-protein phosphatase (Homo sapiens, UniProt Q9BPW0); experiment: PP5 phosphatase inhibitors, dose response, biochemical, fluorescence (AID 2395)
T3 sequence (Q9BPW0 whole entry): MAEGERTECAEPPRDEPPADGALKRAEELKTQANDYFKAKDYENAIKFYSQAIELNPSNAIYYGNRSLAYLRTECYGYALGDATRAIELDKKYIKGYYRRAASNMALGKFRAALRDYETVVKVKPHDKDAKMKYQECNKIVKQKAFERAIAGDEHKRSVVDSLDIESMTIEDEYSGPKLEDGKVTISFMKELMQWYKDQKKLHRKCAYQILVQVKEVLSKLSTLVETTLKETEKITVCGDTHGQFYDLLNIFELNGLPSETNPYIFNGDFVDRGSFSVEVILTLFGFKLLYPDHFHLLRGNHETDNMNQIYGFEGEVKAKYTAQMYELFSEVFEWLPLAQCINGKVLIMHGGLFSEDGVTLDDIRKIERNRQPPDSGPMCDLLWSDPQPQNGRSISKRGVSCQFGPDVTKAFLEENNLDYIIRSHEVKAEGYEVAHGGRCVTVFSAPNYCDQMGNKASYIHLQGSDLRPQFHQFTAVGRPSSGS

[9] = target: T4, Sentrin-specific protease 7 (Homo sapiens, UniProt Q9BQF6); format: functional;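 further: Luminescence-based dose-response confirmation of ultra-high-throughput screening hits, measuring inhibition of SENP7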
T4 sequence (Q9BQF6 whole entry): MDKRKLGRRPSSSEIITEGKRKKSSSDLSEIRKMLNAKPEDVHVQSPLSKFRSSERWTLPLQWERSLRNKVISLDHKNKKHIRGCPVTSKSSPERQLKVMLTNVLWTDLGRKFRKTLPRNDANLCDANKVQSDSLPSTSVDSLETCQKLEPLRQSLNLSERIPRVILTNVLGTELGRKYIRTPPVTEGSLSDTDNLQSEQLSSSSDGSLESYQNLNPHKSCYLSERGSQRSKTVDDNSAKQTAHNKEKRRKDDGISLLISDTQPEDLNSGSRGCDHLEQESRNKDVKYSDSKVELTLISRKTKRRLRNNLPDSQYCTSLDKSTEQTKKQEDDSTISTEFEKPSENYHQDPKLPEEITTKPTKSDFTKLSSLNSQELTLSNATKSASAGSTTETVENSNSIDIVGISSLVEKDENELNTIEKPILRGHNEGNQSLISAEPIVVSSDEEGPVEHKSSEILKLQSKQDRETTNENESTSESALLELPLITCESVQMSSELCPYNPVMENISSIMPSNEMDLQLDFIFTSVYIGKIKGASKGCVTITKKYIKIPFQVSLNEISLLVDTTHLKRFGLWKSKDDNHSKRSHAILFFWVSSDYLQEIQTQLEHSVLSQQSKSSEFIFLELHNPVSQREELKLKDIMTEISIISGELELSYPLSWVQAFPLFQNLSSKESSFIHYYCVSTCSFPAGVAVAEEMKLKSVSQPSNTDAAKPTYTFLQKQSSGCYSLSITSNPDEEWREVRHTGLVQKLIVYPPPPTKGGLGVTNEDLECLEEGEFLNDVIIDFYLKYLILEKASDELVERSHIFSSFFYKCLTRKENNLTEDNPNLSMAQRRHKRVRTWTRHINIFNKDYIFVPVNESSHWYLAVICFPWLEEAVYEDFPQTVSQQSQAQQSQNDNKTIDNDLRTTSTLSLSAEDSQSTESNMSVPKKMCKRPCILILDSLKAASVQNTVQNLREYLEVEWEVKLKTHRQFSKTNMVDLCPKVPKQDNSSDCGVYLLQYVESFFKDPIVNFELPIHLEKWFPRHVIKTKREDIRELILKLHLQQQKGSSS

Caspase-3 = target: T5, Caspase-3 (Homo sapiens, UniProt P42574); format: functional;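 further: Dose-response selectivity test against caspase-3 for candidate inhibitors of sentrin-specific proteases (SENPs)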
T5 sequence (P42574 whole entry): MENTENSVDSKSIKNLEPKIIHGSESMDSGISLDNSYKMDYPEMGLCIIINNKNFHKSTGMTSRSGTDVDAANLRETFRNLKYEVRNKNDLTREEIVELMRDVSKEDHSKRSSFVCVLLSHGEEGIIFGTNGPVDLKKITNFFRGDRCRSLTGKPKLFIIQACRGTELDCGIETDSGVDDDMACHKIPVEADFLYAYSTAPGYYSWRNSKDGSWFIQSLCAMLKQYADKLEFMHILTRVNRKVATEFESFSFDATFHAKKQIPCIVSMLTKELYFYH

[10] = target: T6, Sentrin-specific protease 6 (Homo sapiens, UniProt Q9GZR1); format: functional;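 further: Luminescence-based dose-response confirmatory assay of SENP6 inhibition, following up an ultra-high-throughput screen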
T6 sequence (Q9GZR1 whole entry): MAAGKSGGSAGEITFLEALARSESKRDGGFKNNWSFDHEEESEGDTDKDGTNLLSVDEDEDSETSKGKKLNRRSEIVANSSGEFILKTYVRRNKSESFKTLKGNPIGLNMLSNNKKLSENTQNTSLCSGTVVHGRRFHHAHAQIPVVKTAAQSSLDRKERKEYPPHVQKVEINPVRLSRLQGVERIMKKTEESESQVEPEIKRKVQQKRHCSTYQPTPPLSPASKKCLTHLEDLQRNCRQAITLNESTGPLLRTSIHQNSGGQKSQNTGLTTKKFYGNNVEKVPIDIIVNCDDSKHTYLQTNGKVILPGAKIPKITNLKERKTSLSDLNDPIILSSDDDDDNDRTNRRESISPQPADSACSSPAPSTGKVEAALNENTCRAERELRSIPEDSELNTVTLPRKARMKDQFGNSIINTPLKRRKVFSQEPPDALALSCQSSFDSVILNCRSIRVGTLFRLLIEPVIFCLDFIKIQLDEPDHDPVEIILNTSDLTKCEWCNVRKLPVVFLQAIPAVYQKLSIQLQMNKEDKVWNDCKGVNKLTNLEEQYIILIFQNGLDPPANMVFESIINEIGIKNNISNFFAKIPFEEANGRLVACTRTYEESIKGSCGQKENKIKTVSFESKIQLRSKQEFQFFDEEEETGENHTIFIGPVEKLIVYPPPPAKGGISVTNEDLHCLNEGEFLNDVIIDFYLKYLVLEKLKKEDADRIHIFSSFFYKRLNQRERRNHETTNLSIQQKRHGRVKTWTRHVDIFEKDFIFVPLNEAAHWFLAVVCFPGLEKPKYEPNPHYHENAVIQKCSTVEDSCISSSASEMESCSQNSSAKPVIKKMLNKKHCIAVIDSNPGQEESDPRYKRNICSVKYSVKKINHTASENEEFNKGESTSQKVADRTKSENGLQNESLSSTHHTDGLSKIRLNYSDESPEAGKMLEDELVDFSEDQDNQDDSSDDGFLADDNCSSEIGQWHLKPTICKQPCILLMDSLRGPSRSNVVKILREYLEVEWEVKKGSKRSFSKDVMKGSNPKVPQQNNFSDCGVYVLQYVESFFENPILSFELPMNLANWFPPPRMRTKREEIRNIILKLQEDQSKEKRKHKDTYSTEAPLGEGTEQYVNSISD

[11] = target: T7, Sentrin-specific protease 8 (Homo sapiens, UniProt Q96LD8); format: functional;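 further: luminescence read-out of SENP8 inhibition, dose-response confirmation following an ultra-high-throughput screen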
T7 sequence (Q96LD8 whole entry): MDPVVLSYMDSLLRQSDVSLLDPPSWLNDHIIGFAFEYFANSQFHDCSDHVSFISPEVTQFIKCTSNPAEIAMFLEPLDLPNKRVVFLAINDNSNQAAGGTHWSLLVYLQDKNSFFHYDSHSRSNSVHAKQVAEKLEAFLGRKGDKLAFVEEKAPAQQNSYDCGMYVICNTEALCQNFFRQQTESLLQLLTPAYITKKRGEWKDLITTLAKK

[12] = target: Serine/threonine-protein phosphatase PP1-alpha catalytic subunit (Homo sapiens, UniProt P62136); experiment: PP1 phosphatase inhibitors, dose response, biochemical, fluorescence (AID 2394)
[13] = M. tuberculosis growth inhibition, HTS (AID 449762); format: functional
[14] = target: T8, Rac GTPase-activating protein 1 (Homo sapiens, UniProt Q9H0H5); experiment: MgcRacGAP GTPase-activating activity inhibitors, confirmation, biochemical, ADP Hunter fluorescence, primary and confirmatory (AID 624330); format: functional
T8 sequence (Q9H0H5 whole entry): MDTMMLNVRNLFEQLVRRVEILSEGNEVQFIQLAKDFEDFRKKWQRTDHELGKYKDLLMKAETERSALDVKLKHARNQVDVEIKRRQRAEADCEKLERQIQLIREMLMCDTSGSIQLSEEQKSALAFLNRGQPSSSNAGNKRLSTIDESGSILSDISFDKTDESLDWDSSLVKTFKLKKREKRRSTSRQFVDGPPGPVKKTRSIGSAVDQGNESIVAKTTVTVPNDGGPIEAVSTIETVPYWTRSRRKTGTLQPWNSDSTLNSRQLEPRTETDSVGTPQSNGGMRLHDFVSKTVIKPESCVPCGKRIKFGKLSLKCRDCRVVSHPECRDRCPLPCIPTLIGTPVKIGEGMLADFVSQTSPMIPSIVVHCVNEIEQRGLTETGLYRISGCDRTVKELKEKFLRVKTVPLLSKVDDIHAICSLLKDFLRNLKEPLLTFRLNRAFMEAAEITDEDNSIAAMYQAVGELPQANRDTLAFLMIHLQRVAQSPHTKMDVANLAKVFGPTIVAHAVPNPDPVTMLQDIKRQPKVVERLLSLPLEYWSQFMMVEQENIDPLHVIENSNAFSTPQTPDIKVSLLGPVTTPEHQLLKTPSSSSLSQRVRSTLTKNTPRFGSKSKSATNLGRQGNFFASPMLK

[15] = target: E3 ubiquitin-protein ligase Mdm2 (Homo sapiens, UniProt Q00987); experiment: enhancers of MDM2-luciferase reporter signal, concentration-effect titration, project on inhibitors of MDM2 ubiquitin ligase, cellular assay, luminescent readout, 384-well plate format (AID 1394); format: functional;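 further: MDM2 E3 inhibitors raise luminescence so EC50 is for signal enhancement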
[16] = Luminescence-based dose response cell-based high throughput screening assay for cytotoxic compounds using the IEC-6 intestinal epithelial cell line. [Related pubchem assays: 1858 (Summary AID.), 1825 (Counterscreen.), 1907 (Confirmation screen.)]; format: functional
[17] = Luminescence Cell-Based Dose Response HTS to Identify Activators of Luciferase Translation or Activity in H4 […] Cells. [Related pubchem assays: 1829 (Project Summary), 1814 (Primary HTS)]; format: functional

T2 sequence (Q9UBE0 whole entry): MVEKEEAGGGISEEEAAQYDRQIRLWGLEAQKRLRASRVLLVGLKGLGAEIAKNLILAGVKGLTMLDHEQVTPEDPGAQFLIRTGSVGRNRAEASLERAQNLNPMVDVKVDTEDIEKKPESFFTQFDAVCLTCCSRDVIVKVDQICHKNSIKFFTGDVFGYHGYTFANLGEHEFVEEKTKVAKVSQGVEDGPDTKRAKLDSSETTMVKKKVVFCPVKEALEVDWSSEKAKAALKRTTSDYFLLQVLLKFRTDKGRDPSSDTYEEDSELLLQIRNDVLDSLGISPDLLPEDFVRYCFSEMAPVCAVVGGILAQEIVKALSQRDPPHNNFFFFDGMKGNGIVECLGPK
T2 sequence (Q9UBT2 whole entry): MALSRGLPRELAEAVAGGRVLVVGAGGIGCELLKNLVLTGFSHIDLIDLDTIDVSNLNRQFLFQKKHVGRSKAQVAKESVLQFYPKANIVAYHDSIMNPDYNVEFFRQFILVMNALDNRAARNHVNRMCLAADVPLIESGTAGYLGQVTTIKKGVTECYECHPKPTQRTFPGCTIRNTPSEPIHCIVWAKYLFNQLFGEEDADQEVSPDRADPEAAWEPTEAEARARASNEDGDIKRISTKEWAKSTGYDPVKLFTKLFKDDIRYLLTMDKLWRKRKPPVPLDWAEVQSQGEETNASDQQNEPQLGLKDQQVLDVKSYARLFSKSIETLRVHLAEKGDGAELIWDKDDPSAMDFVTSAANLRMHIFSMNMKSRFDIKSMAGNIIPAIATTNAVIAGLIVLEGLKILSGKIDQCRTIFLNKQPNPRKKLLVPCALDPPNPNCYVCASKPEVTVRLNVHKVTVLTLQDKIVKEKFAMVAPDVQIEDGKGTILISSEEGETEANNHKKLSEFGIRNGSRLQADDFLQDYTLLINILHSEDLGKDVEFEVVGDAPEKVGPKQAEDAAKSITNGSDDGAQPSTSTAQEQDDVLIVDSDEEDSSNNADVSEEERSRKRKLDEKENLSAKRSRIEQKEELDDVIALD
Chain of Genome polyprotein (Q2Q167 whole entry): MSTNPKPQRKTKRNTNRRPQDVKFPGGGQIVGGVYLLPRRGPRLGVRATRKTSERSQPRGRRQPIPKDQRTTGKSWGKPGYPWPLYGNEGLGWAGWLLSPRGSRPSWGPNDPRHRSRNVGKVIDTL
Chain of Eukaryotic translation initiation factor 4E (P63073 whole entry): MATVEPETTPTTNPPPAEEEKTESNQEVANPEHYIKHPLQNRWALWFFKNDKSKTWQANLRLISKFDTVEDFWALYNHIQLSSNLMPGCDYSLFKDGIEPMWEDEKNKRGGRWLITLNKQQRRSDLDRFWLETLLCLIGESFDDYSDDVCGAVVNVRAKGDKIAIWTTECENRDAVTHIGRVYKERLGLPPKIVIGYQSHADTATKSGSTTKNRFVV
Chain of Induced myeloid leukemia cell differentiation protein Mcl-1 (Q07820 whole entry): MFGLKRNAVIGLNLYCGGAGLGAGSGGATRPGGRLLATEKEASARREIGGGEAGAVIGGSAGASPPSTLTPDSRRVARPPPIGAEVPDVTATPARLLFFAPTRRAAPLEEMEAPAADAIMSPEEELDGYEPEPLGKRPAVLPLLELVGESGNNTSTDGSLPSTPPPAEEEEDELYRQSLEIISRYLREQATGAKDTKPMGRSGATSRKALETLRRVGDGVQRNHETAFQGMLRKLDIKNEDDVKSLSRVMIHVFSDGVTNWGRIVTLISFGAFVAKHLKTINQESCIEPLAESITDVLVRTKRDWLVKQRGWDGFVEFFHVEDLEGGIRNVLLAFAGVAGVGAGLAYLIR
Chain of E3 ubiquitin-protein ligase Mdm2 (Q00987 whole entry): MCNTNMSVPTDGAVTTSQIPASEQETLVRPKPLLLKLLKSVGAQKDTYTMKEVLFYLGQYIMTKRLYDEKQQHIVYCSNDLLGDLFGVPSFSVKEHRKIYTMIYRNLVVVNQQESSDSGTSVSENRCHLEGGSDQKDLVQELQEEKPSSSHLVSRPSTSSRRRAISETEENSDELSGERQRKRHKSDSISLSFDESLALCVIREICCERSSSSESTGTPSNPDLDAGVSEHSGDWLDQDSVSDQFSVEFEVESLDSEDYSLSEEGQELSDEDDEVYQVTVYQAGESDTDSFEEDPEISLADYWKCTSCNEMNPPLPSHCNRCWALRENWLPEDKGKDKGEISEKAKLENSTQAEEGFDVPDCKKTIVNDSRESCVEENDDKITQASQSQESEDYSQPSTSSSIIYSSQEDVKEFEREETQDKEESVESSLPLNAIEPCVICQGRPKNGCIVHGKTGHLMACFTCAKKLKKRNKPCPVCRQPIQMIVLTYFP
Chain of Serine/threonine-protein phosphatase PP1-alpha catalytic subunit (P62136 whole entry): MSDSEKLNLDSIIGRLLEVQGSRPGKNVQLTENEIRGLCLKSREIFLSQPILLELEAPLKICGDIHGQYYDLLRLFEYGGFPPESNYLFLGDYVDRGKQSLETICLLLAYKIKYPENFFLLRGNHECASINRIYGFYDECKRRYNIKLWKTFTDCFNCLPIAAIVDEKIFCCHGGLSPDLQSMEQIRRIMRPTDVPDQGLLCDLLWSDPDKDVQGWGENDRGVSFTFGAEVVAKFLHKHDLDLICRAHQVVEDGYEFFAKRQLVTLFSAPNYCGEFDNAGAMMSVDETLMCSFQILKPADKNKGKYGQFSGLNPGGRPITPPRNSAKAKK

For `O=C(Nc1nccs1)c1cc(-c2ccco2)nc2ccccc12`, the IC50 [1] was 3.98 µM (active), the IC50 (Genome polyprotein) was > 49.8 µM (not active) and the IC50 [2] was > 64 µM (inactive). For the same molecule, the IC50 (SUMO-activating enzyme [3]) was 24.2 µM (active), the IC50 (SUMO-activating enzyme [4]) was 6.87 µM (active) and the IC50 [5] was 2.5 µM (active).
In the case of `CCOc1ccc(OCC(O)CNC2CCN(Cc3ccccc3)CC2)cc1` (configuration not stated), the EC50 [6] is reported as < 0.1 µM (active), the EC50 (cells) is reported as 0.255 µM (active) and the EC50 [7] is reported as 9.8 µM (active).
For `CN1CC[C@@]2(C)c3cc(O)ccc3N(C)C2O1` (some centres not stated), the IC50 [8] was > 7.45 µM (active), the IC50 [9] was 14.3 µM (active) and the IC50 (Caspase-3) was > 100 µM (inactive). The IC50 [10] was 11.9 µM (active), the IC50 [11] was 10.7 µM (active) and the IC50 [12] was 52.3 µM (not active).
For `COc1ccc(NC(=O)ON=C2c3ccccc3-c3ccccc32)cc1`, the IC50 [13] was > 100 µM (active).
In the case of `CCCOC(=O)c1ccc(O)c(OC)c1`, the IC50 [14] is reported as 127 µM (active) and the EC50 [15] is reported as 468 µM (not active).
For `Cc1ccc(Nc2nc(-c3ccncc3)cs2)cc1`, the EC50 [6] was 0.239 µM (active), the IC50 [16] was 2.71 µM (active) and the EC50 [17] was 0.149 µM (active). For the same molecule, the EC50 [7] was 8.83 µM (active).
